Measured values: patent US20080293785A1, “SUBSTITUTED BENZOTHIAZOLE KINASE INHIBITORS” (priority 2006, published 2008)

Key:
Assay type in all cases: biochemical
CDK2:Cyclin A = target: T1, CDK2:Cyclin A (Homo sapiens, UniProt P24941); test: CDK2 Screening Assay; conditions: 10 μM ATP, biotinylated histone-H1 peptide substrate, 33P-γ-ATP FlashPlate; read-out: Kinase IC50 CDK2
T1 construct: purchased Upstate Biotech, Lake Placid, N.Y
Procedure: (§1) A kinase reaction mixture was prepared containing 50 mM Tris.HCl pH=8, 10 mM MgCl2, 0.1 mM Na3PO4, 1 mM DTT, 10 μM ATP, 0.025 μM biotinylated histone-H1 peptide substrate and 0.2 μCuries per well ^33P-γ-ATP (2000-3000 Ci/mmol). 70 μL of the kinase reaction mixture was dispensed into the well of a streptavidin coated FlashPlate™ (Cat. # SMP103, NEN, Boston, Mass.). Then 1 μL of test compound stock in 100% DMSO was added to the wells resulting in a final concentration of 1% DMSO in the reaction well with a 100 μL final reaction well volume.
(§2) The CDK2:Cyclin A protein was diluted in 50 mM Tris.HCl pH=8.0, 0.1% BSA at a concentration of 1 ng per μL and 30 μL (30 ng enzyme per test well) was added to each well to initiate the reaction. The reaction was incubated for one hour at 30° C. At the end of the one hour incubation, the reaction was terminated by aspirating the mixture from the plate and washing the wells twice with PBS containing 100 mM EDTA. The histone-H1 biotinylated peptide substrate became immobilized on the Flashplate™ and the incorporation of ^33P-γ-ATP was measured by reading the plate on a scintillation counter. Inhibition of the enzymatic activity of CDK2 was measured by observing a reduced amount of ^33P-γ-ATP incorporated into the immobilized peptide.
The CDK2 kinase used was complexed with cyclin A and is commercially available (Upstate Biotech, Lake Placid, N.Y.).
(§3) An IC50 listed as >0.1, >1, >10 or >100 means no observed 50% inhibition at the indicated test concentration. […] ND means the compound was not tested in the assay specified.

VEGF-R2 kinase domain = VEGF-R2 kinase domain (Rattus norvegicus, UniProt O08775); test: VEGF-R2 Screening Assay; conditions: 10 μM ATP, biotinylated PLC1 peptide substrate, 33P-γ-ATP FlashPlate; read-out: Kinase IC50 VEGFR
Sequence of VEGF-R2 kinase domain (O08775 786-1343): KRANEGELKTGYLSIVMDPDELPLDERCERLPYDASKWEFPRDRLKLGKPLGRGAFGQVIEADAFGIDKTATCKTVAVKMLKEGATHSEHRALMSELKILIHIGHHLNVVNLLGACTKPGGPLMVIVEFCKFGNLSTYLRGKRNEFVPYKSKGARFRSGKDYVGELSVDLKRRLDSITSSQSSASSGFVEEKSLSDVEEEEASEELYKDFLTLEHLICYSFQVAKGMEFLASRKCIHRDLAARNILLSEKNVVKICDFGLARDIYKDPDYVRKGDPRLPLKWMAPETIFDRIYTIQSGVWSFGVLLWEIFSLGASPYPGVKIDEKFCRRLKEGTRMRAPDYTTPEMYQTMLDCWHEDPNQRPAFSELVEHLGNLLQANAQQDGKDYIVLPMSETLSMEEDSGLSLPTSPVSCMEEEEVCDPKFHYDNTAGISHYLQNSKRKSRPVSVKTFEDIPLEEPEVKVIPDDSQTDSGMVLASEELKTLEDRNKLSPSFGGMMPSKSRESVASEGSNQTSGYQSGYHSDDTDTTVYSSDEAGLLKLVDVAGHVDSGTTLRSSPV
Procedure: as §1, with “biotinylated” for “biotinylated histone-H1”, “0.8” for “0.2”
The soluble rat tyrosine kinase containing an N-terminal 6×HIS tag was diluted in 50 mM Tris.HCl pH=8.0, 0.1% BSA at a concentration of 5 ng per μL and 30 μL (150 ng enzyme per test well) was added to each well to initiate the reaction. The reaction was incubated for one hour at 30° C. At the end of the one hour incubation, the reaction was terminated by aspirating the reaction mixture from the plate and washing the wells twice with PBS containing 100 mM EDTA. The PLC1 biotinylated peptide substrate became immobilized on the Flashplate™ and the incorporation of ^33P-γ-ATP was measured by reading the plate on a scintillation counter. Inhibition of the enzymatic activity of the VEGF-R was measured by observing a reduced amount of ^33P-γ-ATP incorporated into the immobilized peptide.
The VEGF-R kinase assay was carried out using the CDK kinase assay procedure except that the enzyme was replaced with the VEGF-R2 fusion protein containing a polyhistidine tag at the N-terminus followed by amino acids 786-1343 of the rat VEGF-R2 kinase domain (GenBank Accession #U93306).
as §3

CDK1:Cyclin-B = target: T2, CDK1:Cyclin-B (Homo sapiens, UniProt P06493); test: CDK1 Screening Assay; conditions: 10 μM ATP, biotinylated histone-H1 peptide substrate, 33P-γ-ATP FlashPlate; read-out: Kinase IC50 CDK1
T2 construct: purchased New England Biolabs, Beverly, Mass; 6020; host or cells: insect cells
T2 sequence (P06493 whole entry): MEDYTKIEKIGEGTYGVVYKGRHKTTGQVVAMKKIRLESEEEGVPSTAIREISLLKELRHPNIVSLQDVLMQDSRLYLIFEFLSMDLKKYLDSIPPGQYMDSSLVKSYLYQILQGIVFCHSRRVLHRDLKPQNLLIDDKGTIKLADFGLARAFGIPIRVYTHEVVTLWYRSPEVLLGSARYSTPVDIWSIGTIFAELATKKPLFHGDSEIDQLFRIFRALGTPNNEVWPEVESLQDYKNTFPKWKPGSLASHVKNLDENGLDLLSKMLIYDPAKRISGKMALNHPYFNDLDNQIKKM
T2 sequence (P14635 whole entry partner): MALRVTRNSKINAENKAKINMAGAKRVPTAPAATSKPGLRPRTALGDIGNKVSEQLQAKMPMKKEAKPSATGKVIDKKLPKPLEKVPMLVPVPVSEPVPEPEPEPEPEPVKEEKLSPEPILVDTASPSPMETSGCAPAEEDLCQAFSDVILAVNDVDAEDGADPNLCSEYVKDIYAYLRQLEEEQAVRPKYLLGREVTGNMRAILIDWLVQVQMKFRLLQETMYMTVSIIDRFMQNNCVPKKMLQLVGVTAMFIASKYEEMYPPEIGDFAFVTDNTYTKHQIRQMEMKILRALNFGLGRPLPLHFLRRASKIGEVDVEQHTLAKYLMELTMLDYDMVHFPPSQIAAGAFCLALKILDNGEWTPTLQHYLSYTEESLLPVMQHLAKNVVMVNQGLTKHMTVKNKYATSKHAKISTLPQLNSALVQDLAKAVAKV
Procedure: as §1
as §2, with “CDK1:Cyclin-B” for “CDK2:Cyclin A”, “CDK1” for “CDK2”
The CDK1 kinase used was isolated from insect cells expressing both the human CDK1 catalytic subunit and its positive regulatory subunit cyclin B (New England Biolabs, Beverly, Mass., Cat. # 6020).
as §3

SMILES | IC50 (CDK2:Cyclin A) [µM] | IC50 (VEGF-R2 kinase domain) [µM] | IC50 (CDK1:Cyclin-B) [µM]
O=C(Nc1cccc2sc(Nc3ccccc3)nc12)NC1CCCCC1 [Cpd 61, 1-cyclohexyl-3-(2-phenylamino-benzothiazol-4-yl)-urea] | > 100 | > 100 | > 100
O=C(Nc1cccc2sc(Nc3ccccc3)nc12)c1c(Cl)cccc1Cl [Cpd 47, 2,6-dichloro-N-(2-phenylamino-benzothiazol-4-yl)-benzamide] | 0.611 | > 100 | 4.3
O=C(Nc1cccc2sc(Nc3ccccc3)nc12)c1ccc(-c2ccccc2)cc1 [Cpd 34, biphenyl-4-carboxylic acid (2-phenylamino-benzothiazol-4-yl)-amide] | 13.6 | > 100 | > 100
O=C(Cc1ccccc1)Nc1cccc2sc(Nc3ccccc3)nc12 [Cpd 51, 2-phenyl-N-(2-phenylamino-benzothiazol-4-yl)-acetamide] | 1.19 | > 100 | > 100
COc1ccc(Nc2nc3c(NC(=O)c4c(F)ccc(C)c4F)cccc3s2)cc1 [Cpd 11, 2,6-difluoro-N-[2-(4-methoxy-phenylamino)-benzothiazol-4-yl]-3-methyl-benzamide] | > 10 | > 100 | > 100
O=C(Nc1cccc2sc(Nc3ccccc3)nc12)c1cc(C(F)(F)F)cc(C(F)(F)F)c1 [Cpd 31, N-(2-phenylamino-benzothiazol-4-yl)-3,5-bis-trifluoromethyl-benzamide] | 3.03 | > 100 | 55.3
O=C(CC1CCCCC1)Nc1cccc2sc(Nc3ccccc3)nc12 [Cpd 58, 2-cyclohexyl-N-(2-phenylamino-benzothiazol-4-yl)-acetamide] | > 100 | > 100 | > 100
O=C(Nc1cccc2sc(Nc3ccccc3)nc12)c1ccno1 [Cpd 18, isoxazole-5-carboxylic acid (2-phenylamino-benzothiazol-4-yl)-amide] | 7.51 | > 100 | > 100
O=S(=O)(Nc1cccc2sc(Nc3ccccc3)nc12)c1ccccc1 [Cpd 30, N-(2-phenylamino-benzothiazol-4-yl)-benzenesulfonamide] | 1.94 | > 100 | 11.3
Cc1ccc(F)c(C(=O)Nc2cccc3sc(Nc4ccc(S(N)(=O)=O)cc4)nc23)c1F [Cpd 12, 2,6-difluoro-3-methyl-N-[2-(4-sulfamoyl-phenylamino)-benzothiazol-4-yl]-benzamide] | > 100 | > 100 | > 100
O=C(Nc1cccc2sc(Nc3ccccc3)nc12)c1cc([N+](=O)[O-])cc([N+](=O)[O-])c1 [Cpd 43, 3,5-dinitro-N-(2-phenylamino-benzothiazol-4-yl)-benzamide] | > 100 | > 100 | > 100
Cc1ccc(Nc2nc3c(NC(=O)c4c(F)ccc(C)c4F)cccc3s2)cc1 [Cpd 14, 2,6-difluoro-3-methyl-N-(2-p-tolylamino-benzothiazol-4-yl)-benzamide] | 3.09 | > 100 | > 100
O=C(Nc1cccc2sc(Nc3ccccc3)nc12)c1cc2ccccc2s1 [Cpd 50, benzo[b]thiophene-2-carboxylic acid (2-phenylamino-benzothiazol-4-yl)-amide] | > 100 | > 100 | > 100
Cc1cc(C)cc(C(=O)Nc2cccc3sc(Nc4ccccc4)nc23)c1 [Cpd 39, 3,5-dimethyl-N-(2-phenylamino-benzothiazol-4-yl)-benzamide] | 1.03 | > 100 | 7.15
O=C(Nc1cccc2sc(Nc3ccccc3)nc12)c1cccc([N+](=O)[O-])c1 [Cpd 19, 3-nitro-N-(2-phenylamino-benzothiazol-4-yl)-benzamide] | 10.8 | > 100 | > 100
O=C(Nc1cccc2sc(Nc3ccccc3)nc12)c1ccco1 [Cpd 37, furan-2-carboxylic acid (2-phenylamino-benzothiazol-4-yl)-amide] | 8.02 | > 100 | > 100
Cc1cc(C(=O)Nc2cccc3sc(Nc4ccccc4)nc23)n(C)n1 [Cpd 13, 2,5-dimethyl-2H-pyrazole-3-carboxylic acid (2-phenylamino-benzothiazol-4-yl)-amide] | 3.34 | > 100 | > 10
O=C(Nc1cccc2sc(Nc3ccccc3)nc12)c1cccc(Br)c1 [Cpd 33, 3-bromo-N-(2-phenylamino-benzothiazol-4-yl)-benzamide] | > 100 | > 100 | > 100
NS(=O)(=O)c1ccc(C(=O)Nc2cccc3sc(Nc4ccccc4)nc23)cc1 [Cpd 17, N-(2-phenylamino-benzothiazol-4-yl)-4-sulfamoyl-benzamide] | 3.05 | > 100 | > 100
O=C(CCc1ccccc1)Nc1cccc2sc(Nc3ccccc3)nc12 [Cpd 54, 3-phenyl-N-(2-phenylamino-benzothiazol-4-yl)-propionamide] | > 100 | > 100 | > 100
O=C(Nc1cccc2sc(Nc3ccccc3)nc12)c1cccs1 [Cpd 35, thiophene-2-carboxylic acid (2-phenylamino-benzothiazol-4-yl)-amide] | > 100 | > 100 | > 100
O=C(Nc1cccc2sc(Nc3ccccc3)nc12)c1c(Cl)cc(Cl)cc1Cl [Cpd 44, 2,4,6-trichloro-N-(2-phenylamino-benzothiazol-4-yl)-benzamide] | 0.31 | > 100 | 1.67
Cc1ccc(F)c(C(=O)Nc2cccc3sc(Nc4ccc(N5CCN(C)CC5)cc4)nc23)c1F [Cpd 49, 2,6-difluoro-3-methyl-N-{2-[4-(4-methyl-piperazin-1-yl)-phenylamino]-benzothiazol-4-yl}-benzamide] | 0.679 | ≥ 100 | 2.71
O=C(Nc1cccc2sc(Nc3ccccc3)nc12)c1ccncc1 [Cpd 28, N-(2-phenylamino-benzothiazol-4-yl)-isonicotinamide] | 1.65 | > 100 | 12.3
O=C(Nc1cccc2sc(Nc3ccccc3)nc12)C1CCCCCC1 [Cpd 55, cycloheptanecarboxylic acid (2-phenylamino-benzothiazol-4-yl)-amide] | > 100 | > 100 | > 100
O=C(Nc1cccc2sc(Nc3ccccc3)nc12)C1CCCC1 [Cpd 52, cyclopentanecarboxylic acid (2-phenylamino-benzothiazol-4-yl)-amide] | 1.37 | > 100 | > 100
CCC(=O)Nc1cccc2sc(Nc3ccccc3)nc12 [Cpd 26, N-(2-phenylamino-benzothiazol-4-yl)-propionamide] | 3.67 | > 100 | > 100
